Key:
[1] = tested on: MT4; experiment: Cytotoxicity against MT-4 cells was determined by using cytopathic effect assay; assay type: functional, Homo sapiens
[2] = tested on: Human immunodeficiency virus 1; experiment: Anti-HIV activity was determined in MT-4 cells in the presence of 0% human serum using cytopathic effect assay; assay type: functional, organism-based; conditions: Human immunodeficiency virus 1, MT4
[3] = tested on: Human immunodeficiency virus 1; experiment: Anti-HIV activity was determined in MT-4 cells in the presence of 50% human serum using cytopathic effect assay; assay type: functional, organism-based; conditions: Human immunodeficiency virus 1, MT4, Serum
[4] = biological target: Human immunodeficiency virus type 1 protease (Human immunodeficiency virus 1) (UniProt Q72874); experiment: Inhibition of HIV protease at 0.5 nM
[5] = biological target: Cytochrome P450 3A4 (Homo sapiens, UniProt P08684); experiment: […] inhibition of human liver microsomal Cytochrome P450 3A4; assay type: ADME
[6] = biological target: Human immunodeficiency virus type 1 protease (Human immunodeficiency virus 1) (UniProt Q72874); experiment: Compound was tested for the inhibition of HIV protease at 27 nM
[7] = tested on: Human immunodeficiency virus 1; experiment: Antiviral activity was assessed against I54I/V, A71V, V82A, L90L/M viral strains isolated from patient-235 pretreated with ritonavir (2 fold) at 36th week; assay type: functional, organism-based
[8] = tested on: Human immunodeficiency virus 1; experiment: Antiviral activity was assessed against K20K/R, 36M/I, 154V, A71A/V, V82T viral strains isolated from patient-129 pretreated with ritonavir(7 fold) at 16th week; assay type: functional, organism-based
[9] = tested on: Human immunodeficiency virus 1; experiment: Antiviral activity was assessed against M36I, I54V, A71V, V82T viral strains isolated from patient-129 pretreated with ritonavir(2 fold) at 8th week; assay type: functional, organism-based
[10] = tested on: Human immunodeficiency virus 1; experiment: Antiviral activity was assessed against M36M/I, I54I/V, V82F/A/S/T viral strains isolated from patient-313 pretreated with ritonavir(3 fold) at 85th day; assay type: functional, organism-based
[11] = tested on: Human immunodeficiency virus 1; experiment: Antiviral activity was assessed against M36M/I, V82F viral strains isolated from patient-313 pretreated with ritonavir(3 fold) at 57th day; assay type: functional, organism-based
[12] = tested on: Human immunodeficiency virus 1; experiment: Antiviral activity was assessed against K20K/R, M36M/I, 154V/I, L63L/P, V82/A viral strains isolated from patient-131 pretreated with ritonavir(7 fold) at 28th week; assay type: functional, organism-based

Cytochrome P450 3A4, sequence (P08684 whole entry): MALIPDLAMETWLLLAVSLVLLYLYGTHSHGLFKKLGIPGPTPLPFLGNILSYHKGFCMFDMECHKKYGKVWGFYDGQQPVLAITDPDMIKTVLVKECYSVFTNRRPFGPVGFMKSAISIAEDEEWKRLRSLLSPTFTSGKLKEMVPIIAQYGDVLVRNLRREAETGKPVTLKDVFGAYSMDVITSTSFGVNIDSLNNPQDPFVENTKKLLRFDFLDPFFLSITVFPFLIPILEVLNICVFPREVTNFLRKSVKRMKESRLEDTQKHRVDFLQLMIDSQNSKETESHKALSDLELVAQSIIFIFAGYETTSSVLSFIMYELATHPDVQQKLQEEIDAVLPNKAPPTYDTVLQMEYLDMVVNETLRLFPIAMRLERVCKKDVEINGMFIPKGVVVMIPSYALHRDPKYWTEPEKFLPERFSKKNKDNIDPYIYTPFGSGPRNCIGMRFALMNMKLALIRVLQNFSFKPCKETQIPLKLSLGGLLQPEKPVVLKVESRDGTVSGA

| SMILES | EC50 [2] | EC50 [3] | inhibition [4] | IC50 [5] | inhibition [6] | CCIC50 [1] | EC50 [7] | EC50 [8] | EC50 [9] | EC50 [10] | EC50 [11] | EC50 [12] |
| --- | --- | --- | --- | --- | --- | --- | --- | --- | --- | --- | --- | --- |
| CCc1nc(COC(=O)N[C@H](C(=O)N[C@@H](Cc2ccccc2)[C@H](O)CN2CCN(Cc3ccc(OC)c(OC)c3)C[C@H]2C(=O)NC(C)(C)C)C(C)C)cs1 | 19 nM | 42 nM | 82% |  |  | 45 µM |  |  |  |  |  |  |
| CC(C)c1nc(COC(=O)N[C@H](C(=O)N[C@@H](Cc2ccccc2)[C@H](O)CN2CCN(Cc3ccccc3)C[C@H]2C(=O)NC(C)(C)C)C(C)C)cs1 | 22 nM | 80 nM | 61% |  |  | 45 µM |  |  |  |  |  |  |
| CC(C)c1nc(COC(=O)N[C@H](C(=O)N[C@@H](Cc2ccccc2)[C@H](O)CN2CCN(Cc3ccc(F)cc3)C[C@H]2C(=O)NC(C)(C)C)C(C)C)cs1 | 21 nM | 174 nM | 64% |  |  | 15 µM |  |  |  |  |  |  |
| CC(C)c1nc(COC(=O)N[C@@H](C(=O)N[C@@H](Cc2ccccc2)[C@H](O)CN2CCN(Cc3cncs3)C[C@H]2C(=O)NC(C)(C)C)C(C)C)cs1 | 6000 nM | 26000 nM |  |  | 50% | 18 µM |  |  |  |  |  |  |
| CC(C)c1nc(COC(=O)N[C@H](C(=O)N[C@@H](Cc2ccccc2)[C@H](O)CN2CCN(Cc3ccc4c(c3)OCO4)C[C@H]2C(=O)NC(C)(C)C)C(C)C)cs1 | 7 nM | 40 nM | 60% | 9600 nM |  | 13 µM | 24 nM | 33 nM | 10 nM | 27 nM | 24 nM | 29 nM |
| CC(C)c1nc(COC(=O)N[C@H](C(=O)N[C@@H](Cc2ccccc2)[C@H](O)CN2CCN(Cc3cccc(O)c3)C[C@H]2C(=O)NC(C)(C)C)C(C)C)cs1 | 40 nM | 142 nM | 53% |  |  | 17 µM |  |  |  |  |  |  |
| CC(C)c1nc(CN(C)C(=O)N[C@H](C(=O)N[C@@H](Cc2ccccc2)[C@H](O)CN2CCN(Cc3ccccc3)C[C@H]2C(=O)NC(C)(C)C)C(C)C)cs1 | 48 nM | 306 nM | 66% |  |  | 56 µM |  |  |  |  |  |  |

More lines, main results first:

| EC50 [2] | EC50 [3] | inhibition [4] | IC50 [5] | inhibition [6] | SMILES | CCIC50 [1] | EC50 [7] | EC50 [8] | EC50 [9] | EC50 [10] | EC50 [11] | EC50 [12] |
| --- | --- | --- | --- | --- | --- | --- | --- | --- | --- | --- | --- | --- |
| 17 nM | 46 nM | 62% |  |  | COc1ccc(CN2CCN(C[C@@H](O)[C@H](Cc3ccccc3)NC(=O)[C@@H](NC(=O)OCc3csc(C(C)C)n3)C(C)C)[C@H](C(=O)NC(C)(C)C)C2)cc1OC | 18 µM |  |  |  |  |  |  |
| 5 nM | 42 nM | 69% | 12000 nM |  | CC(C)c1nc(COC(=O)N[C@H](C(=O)N[C@@H](Cc2ccccc2)[C@H](O)CN2CCN(Cc3cccc4c3COC4)C[C@H]2C(=O)NC(C)(C)C)C(C)C)cs1 | 18 µM |  |  |  |  |  |  |
| 17 nM | 86 nM | 51% |  |  | COc1ccc(CN2CCN(C[C@@H](O)[C@H](Cc3ccccc3)NC(=O)[C@@H](NC(=O)OCc3cnc(C(C)C)s3)C(C)C)[C@H](C(=O)NC(C)(C)C)C2)cc1OC | 21 µM |  |  |  |  |  |  |
| 17 nM | 104 nM | 40% |  |  | CC(C)[C@H](NC(=O)OCc1cncs1)C(=O)N[C@@H](Cc1ccccc1)[C@H](O)CN1CCN(Cc2ccccc2)C[C@H]1C(=O)NC(C)(C)C | 53 µM |  |  |  |  |  |  |
| 12 nM | 67 nM | 67% | 15000 nM |  | CC(C)c1nc(COC(=O)N[C@H](C(=O)N[C@@H](Cc2ccccc2)[C@H](O)CN2CCN(Cc3cncs3)C[C@H]2C(=O)NC(C)(C)C)C(C)C)cs1 | 57 µM |  |  |  |  |  |  |
| 10 nM | 42 nM | 49% | 120000 nM |  | COc1ccc(CN2CCN(C[C@@H](O)[C@H](Cc3ccccc3)NC(=O)[C@@H](NC(=O)OCc3csc(C)n3)C(C)C)[C@H](C(=O)NC(C)(C)C)C2)cc1OC | 57 µM |  |  |  |  |  |  |
| 11 nM | 59 nM | 44% |  |  | COc1ccc(CN2CCN(C[C@@H](O)[C@H](Cc3ccccc3)NC(=O)[C@@H](NC(=O)OCc3cnc(C)s3)C(C)C)[C@H](C(=O)NC(C)(C)C)C2)cc1OC | 53 µM |  |  |  |  |  |  |
